Measured values: the supplement of paper PMC10307832

Columns and labels:
Assay in all cases: relative viability (nuclei count vs DMSO), 5 days (fraction); higher = more cells survive
Motesanib + Alpelisib = compound: CC1(C)CNc2cc(NC(=O)c3cccnc3NCc3ccncc3)ccc21 [Motesanib] + Cc1nc(NC(=O)N2CCC[C@H]2C(N)=O)sc1-c1ccnc(C(C)(C)C(F)(F)F)c1 [Alpelisib] (partner 2 µM)
Outline: (§1)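 Five library-drug doses in √10 steps were combined with a fixed anchor-drug dose, or a single drug was given alone, by pin tool to lung cancer cell lines in 1536-well plates the day after seeding. Nuclei were stained and counted after 5 days. Relative viability is the nuclei count in treated wells over that in vehicle wells, taken as the median of duplicate plates.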

[1] = compound: C[C@@]1(C(=O)Nc2ccc(F)nc2)CCCN1c1nc(Nc2cc(C3CC3)n[nH]2)c2cccn2n1 + CC(=O)c1c(C)c2cnc(Nc3ccc(N4CCNCC4)cn3)nc2n(C2CCCC2)c1=O [Palbociclib] (partner 0.5 µM)
Outline: as §1

[2] = compound: C[C@@]1(C(=O)Nc2ccc(F)nc2)CCCN1c1nc(Nc2cc(C3CC3)n[nH]2)c2cccn2n1 + CC(C)C[C@H](NC(=O)[C@H](Cc1ccccc1)NC(=O)c1cnccn1)B(O)O [Bortezomib] (partner 0.002 µM)
Outline: as §1

[3] = compound: C[C@@]1(C(=O)Nc2ccc(F)nc2)CCCN1c1nc(Nc2cc(C3CC3)n[nH]2)c2cccn2n1 + NC(=O)Nc1cc(-c2cccc(F)c2)sc1C(=O)N[C@H]1CCCNC1 [AZD7762] (partner 0.2 µM)
Outline: as §1

Row | Cell Line | relative viability (Motesanib + Alpelisib; first compound 0.01 µM) | relative viability (Motesanib + Alpelisib; first compound 0.03162 µM) | relative viability (Motesanib + Alpelisib; first compound 0.1 µM) | relative viability (Motesanib + Alpelisib; first compound 0.3162 µM) | relative viability (Motesanib + Alpelisib; first compound 1 µM) | relative viability ([1]; first compound 0.04 µM) | relative viability ([1]; first compound 0.1265 µM) | relative viability ([1]; first compound 0.4 µM) | relative viability ([1]; first compound 1.265 µM) | relative viability ([2]; first compound 0.04 µM) | relative viability ([2]; first compound 0.1265 µM) | relative viability ([2]; first compound 0.4 µM) | relative viability ([2]; first compound 1.265 µM) | relative viability ([3]; first compound 0.04 µM) | relative viability ([3]; first compound 0.1265 µM) | relative viability ([3]; first compound 0.4 µM) | relative viability ([3]; first compound 1.265 µM)
1 | NCI-H2023 | 0.628 | 0.669 | 0.68 | 0.619 | 0.648 | 0.255 | 0.22 | 0.174 | 0.209 | 0.912 | 0.821 | 0.62 | 0.244 |  |  |  | 
2 | NCI-H1944 | 0.785 | 0.853 | 0.89 | 0.885 | 0.855 | 0.272 | 0.237 | 0.251 | 0.294 |  |  |  |  | 0.53 | 0.497 | 0.419 | 0.354
3 | NCI-H1793 | 0.795 | 0.673 | 0.75 | 0.761 | 0.676 | 0.367 | 0.294 | 0.225 | 0.289 |  |  |  |  | 0.463 | 0.501 | 0.393 | 0.456
4 | NCI-H520 | 0.864 | 0.899 | 0.879 | 0.871 | 0.768 | 0.254 | 0.196 | 0.201 | 0.218 | 0.621 | 0.446 | 0.501 | 0.483 |  |  |  | 
5 | A549 | 0.785 | 0.866 | 0.728 | 0.779 | 0.909 |  |  |  |  |  |  |  |  |  |  |  | 
6 | NCI-H358 | 0.949 | 0.938 | 0.88 | 0.839 | 1.02 | 0.112 | 0.121 | 0.115 | 0.107 |  |  |  |  | 0.389 | 0.392 | 0.171 | 0.282
7 | NCI-H1563 | 0.985 | 0.92 | 0.946 | 0.879 | 0.95 |  |  |  |  | 0.853 | 0.826 | 0.73 | 0.747 |  |  |  | 
8 | NCI-H1395 | 1.04 | 0.922 | 0.992 | 0.998 | 1.02 | 0.658 | 0.603 | 0.609 | 0.625 |  |  |  |  | 0.395 | 0.416 | 0.396 | 0.364
9 | NCI-H2009 | 1.15 | 1.18 | 1.17 | 1.19 | 1.15 | 0.221 | 0.258 | 0.162 | 0.212 | 1.13 | 1.17 | 0.931 | 0.875 |  |  |  | 
10 | NCI-H522 |  |  |  |  |  | 0.935 | 0.874 | 0.779 | 0.889 |  |  |  |  | 0.678 | 0.539 | 0.791 | 0.821
11 | IA-LM | 0.616 | 0.788 | 0.711 | 0.891 | 0.746 |  |  |  |  | 0.844 | 0.933 | 0.807 | 0.48 |  |  |  | 
12 | SK-LU-1 | 1.11 | 1.07 | 1.17 | 0.93 | 1.05 | 0.391 | 0.358 | 0.341 | 0.37 | 1.06 | 1.03 | 0.93 | 0.884 |  |  |  | 
13 | NCI-H1703 | 0.294 | 0.283 | 0.211 | 0.183 | 0.239 |  |  |  |  | 0.349 | 0.328 | 0.415 | 0.237 | 0.145 | 0.111 | 0.13 | 0.12
14 | SW 900 |  |  |  |  |  | 0.614 | 0.497 | 0.588 | 0.547 |  |  |  |  | 0.541 | 0.688 | 0.5 | 0.561
